Data set [1] has as its target EVL-EVH1 (Homo sapiens (Human), UniProt Q9UI08). The settings on record: cited from earlier work.
Data set [2] has as its target Ena-EVH1 (Homo sapiens (Human), UniProt Q8N8S7). Particulars: cited from earlier work.
Data set [3] concerns the target VASP-EVH1 (Homo sapiens (Human), UniProt P50552). Particulars: cited from earlier work.
The subject of data set [4] is Ena/VASP-EVH1 domain. The settings on record: cited from earlier work.
Data set [5] concerns the target T1, EnaH-EVH1 domain (Homo sapiens (Human), UniProt Q8N8S7). Put plainly: Binding affinity to the EnaH-EVH1 domain by fluorescence titration (FT). The settings on record: for Kd / FT ΔG^0 (free energy): EnaH-EVH1 domain. How it is done:
(§1) The binding data of the ligands to the domain was determined by means of isothermal titration calorimetry (ITC) or fluorescence titration (FT) and presented in the form of the dissociation constant (Kd) or the free energy (AGO). A stronger binding of the ligand to the domain is expressed by a smaller Kd value or a correspondingly more negative AGO value. The relationship between the two parameters is shown in equation (a): […]

Data set [6] can be described thus: Cell permeability. Particulars: comparison among derivatives 44, 242 and 113. The class given is in vitro ADME.
Data set [7] is described as follows: Metabolic stability. The class given is in vitro ADME. Particulars: comparison among derivatives 44, 242 and 113.
Data set [8] addresses T1, EnaH-EVH1 domain. Briefly: Binding affinity to the EnaH-EVH1 domain by isothermal titration calorimetry (ITC). The settings on record: standard errors in brackets. As to the method: as §1
For data set [9], the target named is VASP (Homo sapiens (Human), UniProt P50552). Particulars: cited from earlier work.
In data set [10] the test system is highly metastatic colorectal and breast cancer cells. The settings on record: cited from earlier work.
For data set [11] the following is noted: esterification of the free acid 43; cited from earlier work.
[12] abbreviates: fluorescence titration, Table 3, read-out: KD.

The text below walks through data of patent US12195466B2, “Polyproline mimetics of proline-derived module-15” (Forschungsverbund Berlin e.V., priority 2018, dated 2025).

T1 sequence (Q8N8S7 1-111): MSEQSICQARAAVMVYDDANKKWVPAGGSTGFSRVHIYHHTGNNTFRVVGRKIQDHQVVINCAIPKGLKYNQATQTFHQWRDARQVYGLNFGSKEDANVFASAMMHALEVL
Chain of Ena-EVH1 (Q8N8S7 1-111): as above
Chain of VASP-EVH1 (P50552 2-113): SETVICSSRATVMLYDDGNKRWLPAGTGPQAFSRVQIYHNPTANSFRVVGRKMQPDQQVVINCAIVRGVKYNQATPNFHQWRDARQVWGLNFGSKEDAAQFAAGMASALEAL
Chain of VASP (P50552 whole entry, species assumed): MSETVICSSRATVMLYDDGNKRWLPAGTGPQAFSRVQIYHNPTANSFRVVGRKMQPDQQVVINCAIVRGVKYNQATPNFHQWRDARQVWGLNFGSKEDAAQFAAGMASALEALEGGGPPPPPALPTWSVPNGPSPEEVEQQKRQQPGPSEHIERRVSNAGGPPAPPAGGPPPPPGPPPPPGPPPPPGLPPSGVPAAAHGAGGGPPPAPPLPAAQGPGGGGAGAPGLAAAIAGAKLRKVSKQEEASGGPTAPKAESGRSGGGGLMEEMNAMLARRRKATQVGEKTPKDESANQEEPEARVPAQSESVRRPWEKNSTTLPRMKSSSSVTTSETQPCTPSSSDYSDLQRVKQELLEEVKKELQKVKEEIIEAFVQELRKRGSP
Chain of EVL-EVH1 (Q9UI08 1-112): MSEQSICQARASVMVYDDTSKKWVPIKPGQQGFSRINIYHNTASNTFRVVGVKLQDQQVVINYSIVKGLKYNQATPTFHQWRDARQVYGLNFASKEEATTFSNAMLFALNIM

On to “Ac-[L-2CI-F]-[ProM-2]-[ProM-1]-OH [Ligand 43]”, for which the “increased binding affinity compared to the natural peptide 42” value in [1] is reported as 180 fold; in [2], 180 fold; in [3], 280 fold.
As to Ac-SFEFPPPPTEDEL-NH2 [Ligand 40], the “binding to the Ena/VASP-EVH1 domain (range in words)” value in [4] was “micromolar range”.
As for `CCC[C@@H]1C=C[C@H]2CCN(C(=O)[C@@H]3CC[C@@H]4C=C[C@H]5CCN(C(=O)[C@H](Cc6ccccc6Cl)NC(C)=O)[C@@H]5C(=O)N43)[C@@H]2C(=O)N1CC(=O)OC` [Ac-[2Cl-Phe]-[ProM-1]-[ProM-21]-OMe], the Kd in data set [5] (setting [12]) was 2100 nM.
For the compound `COC(=O)CN1C(=O)[C@@H]2[C@@H](C=C[C@H]1CC(C)C)CCN2C(=O)[C@@H]1CC[C@@H]2C=C[C@H]3CCN(C(=O)[C@H](Cc4ccccc4Cl)NC(C)=O)[C@@H]3C(=O)N21` [Ac-[2Cl-Phe]-[ProM-1]-[ProM-17]-OMe], the Kd in data set [5] (setting [12]) worked out at 2200 nM.
As to `COC(=O)[C@@H]1CC[C@@H]2C=C[C@H]3CCN(C(=O)[C@@H]4CC[C@H]5C=C[C@]6(CCCN6C(=O)[C@H](Cc6ccccc6Cl)NC(C)=O)C(=O)N54)[C@@H]3C(=O)N21` [Ligand 242, Ac-[L-2Cl—F]-[ProM-2]-[ProM-1]-OMe], in data set [5] (standard errors in brackets), the “FT ΔG^0 (free energy)” value is −30.6 (0.4) kJ/mol. In addition, the cell permeabilities result in data set [6] is on record as “almost identical”. Moreover, the metabolic stabilities result in [7] is given as “almost identical”.
As to `COC(=O)CN1C(=O)[C@@H]2[C@@H](C=C[C@H]1CC(C)C)CCN2C(=O)[C@@H]1CC[C@H]2C=C[C@]3(CCCN3C(=O)[C@H](Cc3ccccc3Cl)NC(C)=O)C(=O)N21` [Ac-[2Cl-Phe]-[ProM-2]-[ProM-17]-OMe], the Kd in [5] (setting [12]) worked out at 540 nM.
In the case of `CCOC(=O)[C@@H]1C[C@@H](C)[C@@H]2C=C[C@H]3CCN(C(=O)[C@@H]4CC[C@H]5C=C[C@]6(CCCN6C(=O)[C@H](Cc6ccccc6Cl)NC(C)=O)C(=O)N54)[C@@H]3C(=O)N12` [Ligand 251, Ac-[L-2Cl—F]-[ProM-2]-[ProM-9]-OEt, reference compound], the “FT ΔG^0 (free energy)” value in data set [5] (standard errors in brackets) was −36.6 (0.3) kJ/mol.
The compound `CC(=O)N[C@@H](Cc1ccccc1Cl)C(=O)N1CCC[C@]12C=C[C@@H]1CC[C@@H](C(=O)N3CC[C@@H]4C=C[C@H]5CC[C@@H](C(N)=O)N5C(=O)[C@H]43)N1C2=O` [Ligand 113, Ac-[L-2Cl—F]-[ProM-2]-[ProM-1]-NH2] came in with a Kd in [8] of 7000 nM. In addition, the cell permeabilities entry in data set [6] is listed as “almost identical”. Further, the metabolic stabilities result in data set [7] is “almost identical”.
Take `CCOC(=O)[C@@H]1CC[C@@H]2C=C[C@H]3CCN(C(=O)[C@@H]4CC[C@H]5C=C[C@]6(CCCN6C(=O)[C@H](Cc6ccccc6Cl)NC(C)=O)C(=O)N54)[C@@H]3C(=O)N21` [Ligand 44, Ac-[L-2Cl—F]-[ProM-2]-[ProM-1]-OEt, reference compound]: the “FT ΔG^0 (free energy)” value in data set [5] (standard errors in brackets) is −30.8 (0.2) kJ/mol. Further, in data set [6], the cell permeabilities entry is recorded as “almost identical”. Besides, the metabolic stabilities entry in data set [7] is recorded as “almost identical”. Also, the “delocalization of VASP from focal adhesions and leading edge” value in data set [9] is “delocalizes the protein VASP from focal adhesions”. Further, the “motility of cancer cells” value in data set [10] was “drastically reduces the motility”. Also, the cell permeability entry in [11] is “cell-permeable”.
With `CC[C@@H]1C=C[C@H]2CCN(C(=O)[C@@H]3CC[C@H]4C=C[C@]5(CCCN5C(=O)[C@H](Cc5ccccc5Cl)NC(C)=O)C(=O)N43)[C@@H]2C(=O)N1CC(=O)OC` [Ligand 247, Ac-[L-2Cl—F]-[ProM-2]-[R,S,R-Gly-ProM-15]-OMe], the Kd is 470 nM in [5] (setting [12]) and 470 nM in data set [5] (standard errors in brackets, read-out: FT Kd). Moreover, the “FT ΔG^0 (free energy)” value in data set [5] (standard errors in brackets) is given as −36.1 (0.1) kJ/mol. In addition, in data set [5] (compared with the ProM-1-based predecessor ligands 44 and 242), the “gain in affinity by a factor” value is 9-10.
`CC[C@@H]1C=C[C@H]2CCN(C(=O)[C@@H]3CC[C@@H]4C=C[C@H]5CCN(C(=O)[C@H](Cc6ccccc6Cl)NC(C)=O)[C@@H]5C(=O)N43)[C@@H]2C(=O)N1CC(=O)OC` [Ac-[2Cl-Phe]-[ProM-1]-[ProM-15]-OMe]: in data set [5] (setting [12]), the Kd stood at 900 nM.
In the case of `CCC[C@@H]1C=C[C@H]2CCN(C(=O)[C@@H]3CC[C@H]4C=C[C@]5(CCCN5C(=O)[C@H](Cc5ccccc5Cl)NC(C)=O)C(=O)N43)[C@@H]2C(=O)N1CC(=O)OC` [Ac-[2Cl-Phe]-[ProM-2]-[ProM-21]-OMe], the Kd in data set [5] (setting [12]) is 260 nM.

What is called Kd is the free concentration of one partner at which half of the binding sites on the other are occupied at equilibrium, for simple one-to-one binding.
